{"source": "patent US20240390311A1", "about": "(priority 2020, published 2024)", "key": {"MHV-1": {"system": "MHV-1", "format": "in vivo, A/J mice", "conditions": "for body weight loss / death rate / disease (illness) scores / lung coefficient index: Example 2, in water: GABA 2 mg/mL, homotaurine 0.25 mg/mL, baclofen 0.25 mg/mL, vs untreated controls"}, "[1]": {"system": "autoreactive Th1 and Th17 cells", "conditions": "cited from earlier work; for disease progression in mouse models of type 1 diabetes, multiple sclerosis, and rheumatoid arthritis: administration of GABA or homotaurine; for CD4+ and CD8+ Treg responses / autoreactive Th1 and Th17 cells: in vivo administration"}, "[2]": {"conditions": "cited from earlier work"}, "SARS-CoV-2 [3]": {"system": "SARS-CoV-2", "format": "in vivo, K18-hACE2 mice", "conditions": "for mice surviving on days 7-8 post-infection: control 20%"}, "SARS-CoV-2 [4]": {"system": "SARS-CoV-2", "conditions": "NIH (NCATS) screen; cited from earlier work"}, "SARS-CoV-2 [5]": {"system": "SARS-CoV-2", "format": "in vivo, K18-hACE2 mice"}, "[6]": {"conditions": "hundreds of epilepsy patients, long-term studies"}, "[7]": {"conditions": "GABA 2 mg/mL treated vs untreated infected mice"}, "[8]": {"conditions": "GABA 2 mg/mL vs untreated infected mice, p<0.001"}, "[9]": {"conditions": "GABA-treated vs SC group, no statistically significant difference"}}, "note": "Read-outs that look alike come from different tables or passages of the source."}
{"compound": "NCC(CC(=O)O)c1ccc(Cl)cc1", "note": "(stereo not drawn) [Baclofen, baclofen]", "values": [{"measurement": "body weight loss", "setting": "MHV-1", "result": "did not significantly decrease"}, {"measurement": "death rate", "setting": "MHV-1", "result": "did not significantly decrease"}, {"measurement": "disease (illness) scores", "setting": "MHV-1", "result": "slight but significant ability to reduce"}, {"measurement": "lung coefficient index", "setting": "MHV-1", "result": "did not significantly decrease"}]}
{"compound": "NCCCS(=O)(=O)O", "note": "[homotaurine]", "values": [{"measurement": "body weight loss", "setting": "MHV-1", "result": "significantly reduced"}, {"measurement": "death rate", "setting": "MHV-1", "result": "significantly reduced"}, {"measurement": "disease (illness) scores", "setting": "MHV-1", "result": "significantly reduced"}, {"measurement": "lung coefficient index", "setting": "MHV-1", "result": "significantly reduced"}, {"measurement": "disease progression in mouse models of type 1 diabetes, multiple sclerosis, and rheumatoid arthritis", "setting": "[1]", "result": "inhibits"}, {"measurement": "CD4+ and CD8+ Treg responses", "setting": "[1]", "result": "promoting"}, {"measurement": "autoreactive Th1 and Th17 cells", "setting": "[1]", "result": "inhibits"}]}
{"compound": "NCCCC(=O)O", "note": "[GABA, gamma-aminobutyric acid]", "values": [{"measurement": "body weight loss", "setting": "MHV-1", "result": "significantly reduced"}, {"measurement": "death rate", "setting": "MHV-1", "result": "significantly reduced"}, {"measurement": "disease (illness) scores", "setting": "MHV-1", "result": "significantly reduced"}, {"measurement": "highest average illness score", "setting": "MHV-1; GABA 20 mg/ml immediately after inoculation, day 7 post-infection, scale 0-5", "result": 1.6}, {"measurement": "body weight at 14 days post-infection, of starting weight", "setting": "MHV-1; GABA 20 mg/ml starting 3 days post-infection", "result": 90, "unit": "%"}, {"measurement": "maximum mean illness score", "setting": "MHV-1; GABA 20 mg/ml starting 3 days post-infection, scale 0-5", "result": 2.5}, {"measurement": "mice that died", "setting": "MHV-1; GABA 20 mg/ml starting 3 days post-infection, up to 14 days (death on day 9)", "result": "1/9"}, {"measurement": "average body weight below starting weight 14 days post-infection", "setting": "MHV-1; GABA 20 mg/ml starting immediately after MHV-1 inoculation", "result": 7, "unit": "%"}, {"measurement": "mice that died", "setting": "MHV-1; GABA 20 mg/ml starting immediately after MHV-1 inoculation, up to 14 days, control 3/9 survived", "result": "none"}, {"measurement": "disease progression in mouse models of type 1 diabetes, multiple sclerosis, and rheumatoid arthritis", "setting": "[1]", "result": "inhibits"}, {"measurement": "CD4+ and CD8+ Treg responses", "setting": "[1]", "result": "promoting"}, {"measurement": "autoreactive Th1 and Th17 cells", "setting": "[1]", "result": "inhibits"}, {"measurement": "ability to reduce seizures", "setting": "[2]; [6]", "result": "no clinical benefit"}, {"measurement": "adverse effects", "setting": "[2]; [6]", "result": "no adverse effects"}, {"measurement": "safety", "setting": "[2]; phase Ib GABA oral dosing study", "result": "safe"}, {"measurement": "mice survived at end of study on day 7", "setting": "SARS-CoV-2 [3]; Example 4, GABA 2 mg/mL started 2 days post-infection, control 22%, p=0.004", "result": 88, "unit": "%"}, {"measurement": "longitudinal mean illness scores", "setting": "SARS-CoV-2 [3]; Example 4, GABA 2 mg/mL started 2 days post-infection, overall p=0.002", "result": "reduced"}, {"measurement": "mice that died during the 7-day observation period", "setting": "SARS-CoV-2 [3]; Trial 1, GABA 0.2 mg/mL in water, control 3/5 died", "result": "none"}, {"measurement": "mice surviving on days 7-8 post-infection", "setting": "SARS-CoV-2 [3]; Trial 2, GABA 0.2 mg/mL, p=0.004", "result": 80, "unit": "%"}, {"measurement": "mice surviving on days 7-8 post-infection", "setting": "SARS-CoV-2 [3]; Trial 2, GABA 2 mg/mL, p=0.018", "result": 80, "unit": "%"}, {"measurement": "illness scores", "setting": "SARS-CoV-2 [3]; Trial 2, GABA 0.2 or 2.0 mg/mL in water from infection, vs control", "result": "significantly reduced"}, {"measurement": "SARS-CoV-2 interaction with its cellular receptor", "setting": "SARS-CoV-2 [4]", "result": "did not interfere"}, {"measurement": "SARS-CoV-2 replication", "setting": "SARS-CoV-2 [4]", "result": "did not interfere"}, {"measurement": "serum GM-CSF level", "setting": "SARS-CoV-2 [5]; [7]", "result": "not found to have a statistically significant difference"}, {"measurement": "serum IFNα level", "setting": "SARS-CoV-2 [5]; [7]", "result": "not found to have a statistically significant difference"}, {"measurement": "serum IFNβ level", "setting": "SARS-CoV-2 [5]; [7]", "result": "not found to have a statistically significant difference"}, {"measurement": "serum IFNγ level", "setting": "SARS-CoV-2 [5]; [7]", "result": "not found to have a statistically significant difference"}, {"measurement": "serum IL-12 level", "setting": "SARS-CoV-2 [5]; [7]", "result": "not found to have a statistically significant difference"}, {"measurement": "serum IL-10 levels", "setting": "SARS-CoV-2 [5]; [8]", "result": "further significantly elevated"}, {"measurement": "serum IP-10 (CXCL10) levels", "setting": "SARS-CoV-2 [5]; [8]", "result": "significantly reduced"}, {"measurement": "TNFα production (serum)", "setting": "SARS-CoV-2 [5]; GABA 2 mg/mL vs untreated infected, p<0.001", "result": "significantly mitigated"}, {"measurement": "mice with detectable IFNβ levels", "setting": "SARS-CoV-2 [5]; GABA 2 mg/mL, 1/10 in healthy and infected control groups", "result": "3/10"}, {"measurement": "mice with high levels of IFNγ", "setting": "SARS-CoV-2 [5]; GABA 2 mg/mL, 3/10 in untreated infected group", "result": "1/10"}, {"measurement": "median and mean levels of IFNα", "setting": "SARS-CoV-2 [5]; GABA treated vs. untreated infected group, p=0.14", "result": "slightly elevated"}, {"measurement": "serum IL-1β level", "setting": "SARS-CoV-2 [5]; [9]", "result": "slightly reduced"}, {"measurement": "serum IL-6 level", "setting": "SARS-CoV-2 [5]; [9]", "result": "slightly reduced"}, {"measurement": "median and mean IFNγ levels", "setting": "SARS-CoV-2 [5]; GABA-treated vs. untreated infected mice, p=0.25", "result": "reduced"}, {"measurement": "serum CCL2 levels", "setting": "SARS-CoV-2 [5]; GABA-treated vs. untreated-infected mice, p=0.07", "result": "tending to be lower"}, {"measurement": "serum CCL5 level", "setting": "SARS-CoV-2 [5]; among HC, SC and GABA groups", "result": "No statistically significant difference"}, {"measurement": "serum CXCL1 level", "setting": "SARS-CoV-2 [5]; among HC, SC and GABA groups", "result": "No statistically significant difference"}]}
